Data from PubChem BioAssay AID2060895 (Molecular Pharmacology Branch, DTP, NCI, 2025).
Several values for one entry are separate records, joined by “and”; a condition that tells them apart may be missing. Equal values may be shown once.

Tested on: PDC 899932-113-R3-J6 complex spheroid viability
Test: Anticancer human tumor 899932-113-R3-J6-PDC patient-derived melanoma cell line growth inhibition [RAS]
Conditions: for viability, T/C: stronger effect = lower value
Excerpt: RAS pathway inhibitors in Combinations in Complex Spheroids
A high-throughput screen of multi-cell type tumor spheroids was designed to identify active combinations of RAS pathway inhibitors and targeted small molecules. Complex spheroids include a stromal component modeled by human endothelial cells (HUVEC) and fibroblasts modeled by human mesenchymal stem cells (MSCs). The concentration ranges selected for each drug and investigational agent were based upon clinically achievable concentrations if the clinical Cmax of the agent was known.
Compounds. The drugs and investigational agents: abemaciclib (NSC768073), cobimetinib (NSC768068), divarasib (GDC6063, NSC841802), docetaxel (NSC628503), GDC-1971 (RLY-1971, NSC841576), gemcitabine (NSC613327), inavolisib (NSC800729), ipatasertib (NSC767898), KB-0742 (NSC834161), MRTX-1133 (NSC836407), osimertinib (NSC779217), RMC-4630 (NSC839698), RMC-6236 (NSC851965), RMC-6291 (NSC852671), Ro-3306 (NSC812927), sapanisertib (NSC764658), SN-38 (NSC673596), staurosporine (NSC755774), SY5609 (NSC837396), and tovorafenib (DAY101, NSC766906), were obtained from the National Cancer Institute (NCI) Developmental Therapeutics Program Chemical Repository. The FDA-approved anticancer drug set is available from the NCI Developmental Therapeutics Program. […] The stock solutions were prepared in dimethyl sulfoxide (DMSO, Sigma-Aldrich, St. Louis, MO, cat. D2650) at 800-fold the tested concentration and stored at -70 degrees C prior to their use. All drugs and investigational agents were tested over a range starting from a high concentration at or near the clinical Cmax and decreasing in half-log increments. If the clinical Cmax for an agent had not been determined, the highest concentration tested was 10 microM.
Cell Culture. All cells were maintained in an incubator at 37 degrees C and 5% CO2 with 95% humidity. The PDC lines were cultured according to standard operating procedures established by the NCI PDMR. All PDCs were thawed and cultured in Matrigel-coated flasks prepared with a working solution of 1X Ham's F-12 nutrient mix, without supplementation (Invitrogen, Waltham, MA, cat. 11765054), 100 U/mL penicillin-streptomycin (Invitrogen, cat. 15140122), and 2.5% Matrigel (Corning Inc., Corning, NY, cat. 354248) for the first three passages. The 362531-283-R-J2-PDC and 782815-120-R-J1-PDC lines were cultured in 6C/Colon 1B media, which includes advanced DMEM/F-12 (Thermo Fisher Scientific, cat. 12634028), 10 mM HEPES (Thermo Fisher Scientific, cat. 15630080), 1X GlutaMAX supplement (Thermo Fisher Scientific, cat. 35050061), 0.1 mg/mL primocin (InvivoGen, San Diego, CA, cat. ant-pm-2), 10% defined fetal bovine serum, heat inactivated (HyClone Laboratories Inc., Logan, UT, cat. SH30070.03HI), 50% L-WRN conditioned media (ATCC, cat. CRL-3276), 1.25 mM N-Acetyl-L-cysteine (Sigma-Aldrich, cat. A9165), 10 mM nicotinamide (Sigma-Aldrich, cat. N0636), 1X B-27 supplement (Thermo Fisher Scientific, cat. 17504044), 1X N-2 supplement (Thermo Fisher Scientific, cat. 17502048), 50 ng/mL human EGF (Thermo Fisher Scientific, cat. PHG0311), and 10 microM Y-27632 dihydrochloride (Tocris Bioscience, cat. 1254). The K12877-001-R-J1-PDC line was cultured in 6I media, which includes all 6C/Colon 1B media plus 10 ng/mL human FGF-10 (PeproTech, cat. 100-26), 1 ng/mL human FGF-2 (PeproTech, cat. 100-18B), 1 µM prostaglandin E2 (Tocris Bioscience, cat. 2296), […] hydrocortisone (Sigma-Aldrich, cat. H4001), and […] bovine insulin (Sigma-Aldrich, cat. I6634). The K86415-001-R-J1-PDC line was cultured in 6D media, which includes all 6C/Colon 1B media components minus the L-WRN conditioned media. The 485176-168-R4-J1-PDC was cultured in PANC media, which includes all 6C/Colon 1B media plus 100 ng/mL human FGF-10 (PeproTech, cat. 100-26), 500 nM SB-431542 (Selleckchem, cat. S1067), and 10 nM gastrin (Tocris Bioscience, cat. 3006). […]

[1] = curve of first compound, second compound 0.0316 µM
[2] = curve of first compound, second compound 0.1 µM
[3] = curve of first compound, second compound 0.316 µM
[4] = curve of first compound, second compound 1 µM
[5] = curve of first compound, second compound 3.16 µM
[6] = curve of first compound, second compound 10 µM
[7] = second compound 0.0316 µM, first compound 0.00316 µM
[8] = second compound 0.0316 µM, first compound 0.01 µM
[9] = second compound 0.0316 µM, first compound 0.0316 µM
[10] = second compound 0.0316 µM, first compound 0.1 µM
[11] = second compound 0.0316 µM, first compound 0.316 µM
[12] = second compound 0.0316 µM, first compound 1 µM
[13] = second compound 0.1 µM, first compound 0.00316 µM
[14] = second compound 0.1 µM, first compound 0.01 µM
[15] = second compound 0.1 µM, first compound 0.0316 µM
[16] = second compound 0.1 µM, first compound 0.1 µM
[17] = second compound 0.1 µM, first compound 0.316 µM
[18] = second compound 0.1 µM, first compound 1 µM
[19] = second compound 0.316 µM, first compound 0.00316 µM
[20] = second compound 0.316 µM, first compound 0.01 µM
[21] = second compound 0.316 µM, first compound 0.0316 µM
[22] = second compound 0.316 µM, first compound 0.1 µM
[23] = second compound 0.316 µM, first compound 0.316 µM
[24] = second compound 0.316 µM, first compound 1 µM
[25] = second compound 1 µM, first compound 0.00316 µM
[26] = second compound 1 µM, first compound 0.01 µM
[27] = second compound 1 µM, first compound 0.0316 µM
[28] = second compound 1 µM, first compound 0.1 µM
[29] = second compound 1 µM, first compound 0.316 µM
[30] = second compound 1 µM, first compound 1 µM
[31] = second compound 3.16 µM, first compound 0.00316 µM
[32] = second compound 3.16 µM, first compound 0.01 µM
[33] = second compound 3.16 µM, first compound 0.0316 µM
[34] = second compound 3.16 µM, first compound 0.1 µM
[35] = second compound 3.16 µM, first compound 0.316 µM
[36] = second compound 3.16 µM, first compound 1 µM
[37] = second compound 10 µM, first compound 0.00316 µM
[38] = second compound 10 µM, first compound 0.01 µM
[39] = second compound 10 µM, first compound 0.0316 µM
[40] = second compound 10 µM, first compound 0.1 µM
[41] = second compound 10 µM, first compound 0.316 µM
[42] = second compound 10 µM, first compound 1 µM
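Throughout, for viability, T/C: spheroids exposed to agents for seven days before readout; 100% = DMSO vehicle control wells.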

## CC(=O)OC12COC1CC(O)C1(C)C(=O)C(O)C3=C(C)C(OC(=O)C(O)C(NC(=O)OC(C)(C)C)c4ccccc4)CC(O)(C(OC(=O)c4ccccc4)C21)C3(C)C (stereo not given)
Compound 0.0316 µM
  viability, T/C: 27.8% [middle of 4 runs]
Compound 0.1 µM
  viability, T/C: 33.9% [middle of 4 runs]
Compound 0.316 µM
  viability, T/C: 37.7% [middle of 4 runs]
Compound 1 µM
  viability, T/C: 49.9% [middle of 4 runs]
Compound 3.16 µM
  viability, T/C: 73.4% [middle of 4 runs]
Compound 10 µM
  viability, T/C: 64.2% [middle of 4 runs]
Curve of compound
  IC50: < 31.6 nM

## Cc1nc(N2CCC3(CC2)COC(C)C3N)c(CO)nc1Sc1ccnc(N)c1Cl (stereo not given)
Compound 0.0316 µM
  viability, T/C: 104% [middle of 4 runs]
Compound 0.1 µM
  viability, T/C: 103% [middle of 4 runs]
Compound 0.316 µM
  viability, T/C: 111% [middle of 4 runs]
Compound 1 µM
  viability, T/C: 112% [middle of 4 runs]
Compound 3.16 µM
  viability, T/C: 112% [middle of 4 runs]
Compound 10 µM
  viability, T/C: 108% [middle of 4 runs]
Curve of compound
  IC50: > 10000 nM

## NC1c2ccccc2OC12CCN(c1cnc3c(N4CCCc5ncccc54)n[nH]c3n1)CC2 (stereo not given)
Compound 0.0316 µM
  viability, T/C: 114% [middle of 4 runs]
Compound 0.1 µM
  viability, T/C: 106% [middle of 4 runs]
Compound 0.316 µM
  viability, T/C: 115% [middle of 4 runs]
Compound 1 µM
  viability, T/C: 112% [middle of 4 runs]
Compound 3.16 µM
  viability, T/C: 114% (2×) and 102% and 108%
Compound 10 µM
  viability, T/C: 105% (2×) and 86.2% and 87.2%
Curve of compound
  IC50: > 10000 nM

## C=CC(=O)Nc1cc(Nc2nccc(-c3cn(C)c4ccccc34)n2)c(OC)cc1N(C)CCN(C)C + C#Cc1c(F)ccc2cc(O)cc(-c3ncc4c(N5CC6CCC(C5)N6)nc(OCC56CCCN5CC(F)C6)nc4c3F)c12
[1]
  IC50: > 1000 nM
[2]
  IC50: > 1000 nM
[3]
  IC50: > 1000 nM
[4]
  IC50: > 1000 nM
[5]
  IC50: > 1000 nM
[6]
  IC50: > 1000 nM
[7]
  viability, T/C: 117%
[8]
  viability, T/C: 110%
[9]
  viability, T/C: 109%
[10]
  viability, T/C: 103%
[11]
  viability, T/C: 110%
[12]
  viability, T/C: 95.6%
[13]
  viability, T/C: 103%
[14]
  viability, T/C: 107%
[15]
  viability, T/C: 106%
[16]
  viability, T/C: 100%
[17]
  viability, T/C: 113%
[18]
  viability, T/C: 103%
[19]
  viability, T/C: 111%
[20]
  viability, T/C: 106%
[21]
  viability, T/C: 106%
[22]
  viability, T/C: 107%
[23]
  viability, T/C: 111%
[24]
  viability, T/C: 104%
[25]
  viability, T/C: 114%
[26]
  viability, T/C: 113%
[27]
  viability, T/C: 119%
[28]
  viability, T/C: 122%
[29]
  viability, T/C: 105%
[30]
  viability, T/C: 115%
[31]
  viability, T/C: 115%
[32]
  viability, T/C: 116%
[33]
  viability, T/C: 114%
[34]
  viability, T/C: 117%
[35]
  viability, T/C: 112%
[36]
  viability, T/C: 114%
[37]
  viability, T/C: 123%
[38]
  viability, T/C: 118%
[39]
  viability, T/C: 110%
[40]
  viability, T/C: 128%
[41]
  viability, T/C: 120%
[42]
  viability, T/C: 93.7%

## O=C(c1ccc(F)c(F)c1Nc1ccc(I)cc1F)N1CC(O)([C@@H]2CCCCN2)C1 + C#Cc1c(F)ccc2cc(O)cc(-c3ncc4c(N5CC6CCC(C5)N6)nc(OCC56CCCN5CC(F)C6)nc4c3F)c12
[1]
  IC50: 8.97 nM
[2]
  IC50: 10.1 nM
[3]
  IC50: 12.1 nM
[4]
  IC50: 10.9 nM
[5]
  IC50: 10.8 nM
[6]
  IC50: 9.02 nM
[7]
  viability, T/C: 84.7%
[8]
  viability, T/C: 46.4%
[9]
  viability, T/C: 7.85%
[10]
  viability, T/C: 3.11%
[11]
  viability, T/C: 3.11%
[12]
  viability, T/C: 1.68%
[13]
  viability, T/C: 70.8%
[14]
  viability, T/C: 50.3%
[15]
  viability, T/C: 7.58%
[16]
  viability, T/C: 3.19%
[17]
  viability, T/C: 2.68%
[18]
  viability, T/C: 1.61%
[19]
  viability, T/C: 77.1%
[20]
  viability, T/C: 58.5%
[21]
  viability, T/C: 6.51%
[22]
  viability, T/C: 5.25%
[23]
  viability, T/C: 2.94%
[24]
  viability, T/C: 1.38%
[25]
  viability, T/C: 83.2%
[26]
  viability, T/C: 53.4%
[27]
  viability, T/C: 7.2%
[28]
  viability, T/C: 3.22%
[29]
  viability, T/C: 2.12%
[30]
  viability, T/C: 2.67%
[31]
  viability, T/C: 77.6%
[32]
  viability, T/C: 53.1%
[33]
  viability, T/C: 8.19%
[34]
  viability, T/C: 3.45%
[35]
  viability, T/C: 2.09%
[36]
  viability, T/C: 3.3%
[37]
  viability, T/C: 91.4%
[38]
  viability, T/C: 46%
[39]
  viability, T/C: 8.65%
[40]
  viability, T/C: 6.24%
[41]
  viability, T/C: 2.33%
[42]
  viability, T/C: 2.35%
